Measurements taken from PMC8648000 (Bioorganic & medicinal chemistry letters, 2021).
Values belong to the molecule of their own block, whether it stands above or below them.

What was measured:
[1] = Human microsomal intrinsic clearance and predicted hepatic clearance; format: in vitro ADME; conditions: microsomes
[2] = target: T1, human M4 (hM4) receptor (Homo sapiens, UniProt P08173); format: cell-based; conditions: for hM4 EC50: hM4/Gqi5-CHO cells, EC20 acetylcholine, n=1 experiment in triplicate; for fold increase in functional M4 potency versus 24e: compared with 24e
T1 sequence (P08173 1-479): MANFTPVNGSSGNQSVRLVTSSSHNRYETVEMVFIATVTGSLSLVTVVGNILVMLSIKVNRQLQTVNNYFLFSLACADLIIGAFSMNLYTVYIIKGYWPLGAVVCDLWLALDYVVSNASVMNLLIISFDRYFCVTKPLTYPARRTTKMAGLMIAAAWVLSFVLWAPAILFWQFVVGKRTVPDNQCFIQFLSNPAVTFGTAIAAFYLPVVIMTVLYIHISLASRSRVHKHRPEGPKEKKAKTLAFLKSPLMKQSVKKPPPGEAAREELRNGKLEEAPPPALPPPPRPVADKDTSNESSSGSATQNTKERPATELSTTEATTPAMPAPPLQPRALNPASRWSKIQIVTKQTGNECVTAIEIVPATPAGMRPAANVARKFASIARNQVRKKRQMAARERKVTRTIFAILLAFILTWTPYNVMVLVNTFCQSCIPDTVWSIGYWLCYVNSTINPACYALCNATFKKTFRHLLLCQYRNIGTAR

[3] = Rat microsomal intrinsic clearance and predicted hepatic clearance; format: in vitro ADME; conditions: microsomes
[4] = Rat plasma:brain level; format: in vivo; conditions: SD, brain and plasma, iv, 0.2 mg/kg; for Kp at […]: Kpuu, brain:plasma, SD Rat, 0.2 mg/kg IV

- hM4 EC50 [2]: complete loss of activity
SMILES: Cc1cc(C)c2c(n1)oc1c(NCc3ccc(C(C)(C)O)cc3)ncnc12 [17e]

- hM4 EC50 [2]: complete loss of activity
SMILES: COc1ccc(CNc2ncnc3c2oc2nc(C)cc(C)c23)cc1F [17d]

- hM4 EC50 [2]: complete loss of activity
SMILES: Cc1cc(C)c2c(n1)oc1c(NC3CN(c4ncc(C(F)(F)F)cn4)C3)ncnc12 [17f]

- fold potency decrease versus 16v ([2]; compared with 16v): 4.4 fold
SMILES: Cc1cc(C)c2c(n1)oc1c(NC3CCC3)ncnc12 [17c]

- hM4 EC50 [2]: complete loss of activity
SMILES: Cc1cc(C)c2c(n1)oc1c(N3CCCC3)ncnc12 [17a]

- fold decrease (loss) in hM4 potency versus 16m ([2]; compared with 16m): ~ 2.5 fold
SMILES: Cc1cc(C)c2c(n1)sc1c(NCc3ccc(C(C)(C)O)cc3F)ncnc12 [16n]

- fold decrease (loss) in hM4 potency versus 16m ([2]; compared with 16m): 9.6 fold
SMILES: Cc1cc(C)c2c(n1)sc1c(OCc3ccc(C(C)(C)O)cc3)ncnc12 [compound 19]

- CLint scaled [1]: 28 mL/min/kg
- EC50 [2]: < 350 nM
- CLint scaled [3]: 176 mL/min/kg
- Kp uu at […] [4]: 0.21
SMILES: Cc1cc(C)c2c(n1)sc1c(NCc3ccc(S(C)(=O)=O)cc3)ncnc12 [16o]

The next lines start with the molecule.

SMILES: Cc1cc(C)c2c(n1)sc1c(N3CCCC3)ncnc12 [16w]
- CLint scaled [1]: 134 mL/min/kg
- EC50 [2]: < 350 nM
- CLint scaled [3]: 1900 mL/min/kg
- Kp uu at […] [4]: 0.65
- Kp at […] [4]: 0.35 to 0.65

SMILES: Cc1cc(C)c2c(n1)sc1c(C3CCN(C(=O)C4CC4)CC3)ncnc12 [28a]
- fold increase in functional M4 potency versus 24e [2]: ~ 10 fold

SMILES: Cc1cc(C)c2c(n1)sc1c(NC3CCC3)nccc12 [18g]
- CLint scaled [1]: 345 mL/min/kg
- EC50 [2]: < 350 nM
- fold increase in functional hM4 potency versus 16v ([2]; compared with 16v): ~ 4 fold
- fold increase in human M4 activity versus parent compound VU0152100 ([2]; compared with VU0152100): 6 fold
- CLint scaled [3]: 3860 mL/min/kg
- Kp uu at […] [4]: 4.18

SMILES: Cc1cc(C)c2c(n1)sc1c(C3CCN(C(=O)C4(C)CC4)CC3)ncnc12 [28b]
- CLint scaled [1]: 25 mL/min/kg
- fold increase in functional M4 potency versus 24e [2]: 26 fold
- CLint scaled [3]: 367 mL/min/kg
- Kp uu at […] [4]: 0.35
- Kp at […] [4]: 0.35 to 0.65

SMILES: Cc1cc(C)c2c(n1)sc1c(C3CCN(CC4CC4)CC3)ncnc12 [compound 30]
- hM4 EC50 [2]: complete loss of M4 potency

SMILES: Cc1cc(C)c2c(n1)sc1c(N3CCCC3)nccc12 [18d]
- CLint scaled [1]: 161 mL/min/kg
- EC50 [2]: < 350 nM
- CLint scaled [3]: 2100 mL/min/kg
- Kp uu at […] [4]: 4.87

SMILES: Cc1cc(C)c2c(n1)sc1c(C3CCN(c4cncc(F)c4)CC3)ncnc12 [compound 26]
- hM4 EC50 [2]: complete loss of activity

SMILES: Cc1cc(C)c2c(n1)sc1c(NC3CN(c4ncc(C(F)(F)F)cn4)C3)nccc12 [18c]
- fold increase in hM4 potency versus 16p ([2]; compared with 16p): ~ 44 fold

SMILES: Cc1cc(C)c2c(n1)sc1c(N3CCC3)ncnc12 [16x]
- CLint scaled [1]: 296 mL/min/kg
- EC50 [2]: < 350 nM
- CLint scaled [3]: 741 mL/min/kg
- Kp uu at […] [4]: 0.27

SMILES: Cc1cc(C)c2c(n1)sc1c(C3CCOCC3)ncnc12 [24d]
- fold increase in hM4 functional potency versus 24a ([2]; compared with 24a): ~45 fold

SMILES: Cc1cc(C)c2c(n1)sc1c(N3CC4(COC4)C3)ncnc12 [16y]
- CLint scaled [1]: 129 mL/min/kg
- CLint scaled [3]: 594 mL/min/kg
- Kp uu at […] [4]: 0.4
- Kp at […] [4]: 0.35 to 0.65

SMILES: Cc1cc(C)c2c(n1)sc1c(C3CCNCC3)ncnc12 [24e]
- fold loss of hM4 functional potency versus 24d ([2]; compared with 24d): ~ 40 fold

SMILES: Cc1cc(C)c2c(n1)sc1c(NCc3ccc(C(C)(C)O)cc3)nccc12 [18b]
- CLint scaled [1]: 50 mL/min/kg
- EC50 [2]: < 350 nM
- fold increase in hM4 potency versus 16m ([2]; compared with 16m): ~ 2.8 fold
- CLint scaled [3]: 334 mL/min/kg
- Kp uu at […] [4]: 1.16
